ChEMBL document CHEMBL6087451, “Design, Synthesis, and Biological Evaluation of 2-Arylaminopyrimidine Derivatives as Dual Cathepsin L and JAK Inhibitors for the Treatment of Acute Lung Injury” (J Med Chem, 2025)

Tests used:
[1] = Anti-inflammatory activity against HBE cells assessed as inhibition of LPS-induced IL-6 level at 5 uM pretreated for 30 mins followed by LPS treatment for 24 hrs by ELISA relative to control; assay type: functional; details: Homo sapiens, time 24.5 hrs
[2] = Anti-inflammatory activity against HBE cells assessed as inhibition of LPS-induced IL-8 level at 5 uM pretreated for 30 mins followed by LPS treatment for 24 hrs by ELISA relative to control; assay type: functional; details: Homo sapiens, time 24.5 hrs

Row | SMILES | inhibition at 5 µM [1] [%] | inhibition at 5 µM [2] [%]
1 | Cn1cc(-c2ccnc(Nc3cccc(O)c3)n2)c2ccccc21 | 54 | 56
2 | Nc1ccc(Oc2ccnc(Nc3cccc(N)c3)n2)cc1 | 54 | 56
3 | Nc1cccc(Nc2nccc(Nc3ccc(F)c(F)c3)n2)c1 | 54 | 56
4 | Cn1cc(-c2ccnc(N)n2)c2ccccc21 | 37 | 38
5 | Cn1cc(-c2ccnc(Nc3cccc(F)c3)n2)c2ccccc21 | 54 | 56
6 | COc1ccc(Nc2nccc(-c3cn(C)c4ccccc34)n2)cc1 | 54 | 56
7 | Cn1cc(-c2ccnc(Nc3ccc(C(F)(F)F)cc3)n2)c2ccccc21 | 54 | 56
8 | Nc1cccc(Nc2nccc(Nc3ccc(Br)cc3)n2)c1 | 54 | 56
9 | Nc1cccc(Nc2nccc(Nc3cccc(F)c3)n2)c1 | 54 | 56
10 | Cn1cc(-c2ccnc(Nc3cccc(C(=O)O)c3)n2)c2ccccc21 | 54 | 56
11 | Cc1cccc(Nc2ccnc(Nc3cccc(N)c3)n2)c1C | 54 | 56
12 | Cn1cc(-c2ccnc(Nc3ccc(Cl)c(N)c3)n2)c2ccccc21 | 54 | 56
13 | Cn1cc(-c2ccnc(Nc3ccc(N)cc3)n2)c2ccccc21 | 54 | 56
14 | COc1cccc(Nc2nccc(-c3cn(C)c4ccccc34)n2)c1 | 54 | 56
15 | Nc1cccc(Nc2nccc(Nc3ccccc3)n2)c1 | 54 | 56
16 | Nc1cccc(Nc2nccc(Sc3ccc(Br)cc3)n2)c1 | 54 | 56
17 | COc1cccc(Nc2ccnc(Nc3cccc(N)c3)n2)c1 | 54 | 56

Row | SMILES | inhibition at 5 µM [1] [%] | inhibition at 5 µM [2] [%]
18 | Nc1cccc(Nc2nccc(Oc3ccc(OC(F)(F)F)cc3)n2)c1 | 54 | 56
19 | Cn1cc(-c2ccnc(Nc3ccc(F)cc3)n2)c2ccccc21 | 54 | 56
20 | COc1ccccc1Oc1ccnc(Nc2cccc(N)c2)n1 | 54 | 56
21 | Cc1ccc(Nc2ccnc(Nc3cccc(N)c3)n2)c(C)c1 | 54 | 56
22 | COc1ccc(C)cc1Nc1ccnc(Nc2cccc(N)c2)n1 | 54 | 56
23 | COc1cccc(OC)c1Nc1ccnc(Nc2cccc(N)c2)n1 | 54 | 56
24 | COc1ccccc1Nc1ccnc(Nc2cccc(N)c2)n1 | 54 | 56
25 | Cn1cc(-c2ccnc(Nc3ccc(F)c(N)c3)n2)c2ccccc21 | 54 | 56
26 | Cn1cc(-c2ccnc(Nc3cccc(C(F)(F)F)c3)n2)c2ccccc21 | 54 | 56
27 | Nc1cccc(Nc2nccc(Sc3ccc(C(F)(F)F)cc3)n2)c1 | 54 | 56
28 | Nc1cccc(Nc2nccc(Nc3ccc(Cl)cc3)n2)c1 | 54 | 56
29 | COc1ccc(N)cc1Nc1nccc(-c2cn(C)c3ccccc23)n1 | 64 | 54
30 | Nc1cccc(Nc2nccc(Nc3ccc(C(F)(F)F)cc3)n2)c1 | 54 | 56
31 | COc1ccc(OC)c(Nc2ccnc(Nc3cccc(N)c3)n2)c1 | 54 | 56
32 | Nc1cccc(Nc2nccc(Nc3cccc(Br)c3)n2)c1 | 54 | 56
33 | COc1ccc(Sc2ccnc(Nc3cccc(N)c3)n2)cc1 | 54 | 56
34 | Nc1cccc(Nc2nccc(Nc3cccc(C(F)(F)F)c3)n2)c1 | 54 | 56
